Like-named read-outs stand apart in the source and are kept apart here.
Assays:
VIM-1 = VIM-1 (Pseudomonas aeruginosa (strain ATCC 15692 / DSM 22644 / CIP 104116 / JCM 14847 / LMG 12228 / 1C / PRS 101 / PAO1), UniProt A0A0F7KYQ8); test: Enzyme activity: determination of IC50, fluorescence assay with CCF2-FA substrate (VIM-1); type: biochemical
IMP-1 = IMP-1 (Serratia marcescens, UniProt P52699); test: biochemical; type: biochemical; settings: fluorescence assay with CCF2-FA substrate; read-out: IMP-1 IC50
Chain of IMP-1 (P52699 whole entry, looked up): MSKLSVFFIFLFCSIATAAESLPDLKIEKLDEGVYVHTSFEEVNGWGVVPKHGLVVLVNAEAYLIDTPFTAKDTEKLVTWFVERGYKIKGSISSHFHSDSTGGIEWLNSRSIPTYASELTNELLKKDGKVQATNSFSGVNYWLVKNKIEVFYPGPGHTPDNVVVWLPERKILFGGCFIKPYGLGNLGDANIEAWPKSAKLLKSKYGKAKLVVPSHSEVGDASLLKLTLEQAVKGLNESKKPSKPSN
Experimental: Enzyme Activity: Determination of IC50
The Class B enzyme activities were measured in the presence of the test inhibitor in a fluorescence assay against a commercially available substrate consisting of a cephalosporin core linking 7-hydroxycoumarin to fluorescein (CCF2-FA). The enzyme (NDM-1, IMP-1 or VIM-1) and the substrate were diluted in 100 mM KH2PO4 buffer (pH 7) containing 0.005% Tween-20 and 10 μM ZnSO4. […] The test inhibitor was dissolved in dimethylsulfoxide and diluted 1:50 in the assay, resulting in a final concentration range of 20 uM to 0.00063 uM. In a 384-well microplate, the test inhibitor was incubated with the metallo-β-lactamase enzyme and the substrate for 2 hours at 25° C. Fluorescence at 460 nm following excitation at 405 nm was measured. The IC50 value was determined from semi-logarithmic plots of enzyme inhibition versus inhibitor concentration, with a curve generated using a 4-parameter fit.

NDM-1 = NDM-1 (Klebsiella pneumoniae, UniProt C7C422); test: biochemical; type: biochemical; settings: fluorescence assay with CCF2-FA substrate; read-out: NDM-1 IC50
Chain of NDM-1 (C7C422 whole entry, looked up, species assumed): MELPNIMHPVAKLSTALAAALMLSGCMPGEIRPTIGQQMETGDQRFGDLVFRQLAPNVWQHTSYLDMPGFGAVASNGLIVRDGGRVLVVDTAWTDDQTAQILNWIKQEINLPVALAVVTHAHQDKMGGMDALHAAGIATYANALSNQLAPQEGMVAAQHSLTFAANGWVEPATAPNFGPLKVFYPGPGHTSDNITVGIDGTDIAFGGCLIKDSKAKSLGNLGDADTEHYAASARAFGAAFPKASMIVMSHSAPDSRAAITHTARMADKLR

[1] = test system: Escherichia coli expressing NDM-1 (CLB30016); test: Antibiotic potentiation activity: synergistic concentration (MITC95) with imipenem, OD600 growth; type: cell-based; settings: concentration giving 95% inhibition of bacterial growth
Experimental: (§1) Antibiotic Potentiation Activity: Determination of Synergistic Concentration
(§2) The bacterial strains tested included the clinical strains Escherichia coli expressing NDM-1 (CLB30005, CLB30016), Serratia marcescens expressing IMP-1 (CL5741), and Klebsiella pneumoniae expressing VIM-1 (IHMA599644) Inhibitor activity was measured in the presence and absence of imipenem in a 384-well microplate.
(§3) The clinical strains CLB30016, CL5741 and IHMA599644 were grown on trypticase soy agar containing 5% sheep's blood. The clinical strain CLB30005 was grown on Mueller Hinton broth agar containing 8 ug/ml imipenem. The bacteria on agar plates were incubated at 35° C. with humidity overnight. The following day, individual colonies from each clinical strain were picked and resuspended in 5 ml saline to attain an OD600 of 0.14, 0.11, 0.15 and 0.13, for CLB30005, CLB30016, CL5741 and IHMA599644, respectively. These were further diluted 1:100 into 1.1×CAMHB and used to inoculate the test wells as described below.
(§4) Imipenem in 10 mM 3-(N-morpholino)propanesulfonic acid (MOPS, pH 7) was stored in single use aliquots at −80° C. […] On the day of the assay, 4 μl of antibiotic was added to 45 ul of bacteria followed by 1 μl of test compound and mixed by pipetting and with an orbital shaker. The concentration of antibiotic used in the assay was 4 μg/ml, or optionally 1 μg/ml. Microplates were covered and incubated at 35° C. for 22 hours to 24 hours. At the end of the incubation, absorbance was determined using a spectrophotometer.

[2] = test system: Serratia marcescens expressing IMP-1 (CL5741); test: as above; type: cell-based; settings: concentration giving 95% inhibition of bacterial growth
Experimental: as §1, §2, §3, §4

[3] = test system: Klebsiella pneumoniae expressing VIM-1 (IHMA599644); test: as above; type: cell-based; settings: concentration giving 95% inhibition of bacterial growth
Experimental: as §1, §2, §3, §4

[4] = VIM-1 IC50, fluorescence assay with CCF2-FA substrate
[5] = fluorescence assay with CCF2-FA substrate, read-out: VIM-1 IC50

Row | Structure (SMILES) | IC50 (VIM-1; [4]) [µM] | IC50 (IMP-1) [µM] | IC50 (NDM-1) [µM] | Escherichia coli expressing NDM-1 (CLB 30016) MITC95 [1] [µM] | Serratia marcescens expressing IMP-1 (CL5741) MITC95 [2] [µM] | Klebsiella pneumoniae expressing VIM-1 (IHMA 599644) MITC95 [3] [µM] | IC50 (VIM-1; [5]) [µM]
1 | NS(=O)(=O)c1cccc(-c2cccc3c2CNC3=O)c1-c1nnn[nH]1 [Example 120, 3-(1-oxoisoindolin-4-yl)-2-(1H-tetrazol-5-yl)benzenesulfonamide] | 0.00499 | 0.777 | 0.00142 | 0.7813 | 18.75 | 4.688 | 
2 | NS(=O)(=O)c1cccc(-c2cccc3c2NCCC3)c1-c1nnn[nH]1 [Example 121, 3-(1,2,3,4-tetrahydroquinolin-8-yl)-2-(1H-tetrazol-5-yl)benzenesulfonamide] |  | 0.373 | 0.00737 | 3.125 | 25 | >200 | 0.187
3 | NS(=O)(=O)c1cccc(-c2cnc(N3CCCCC3)nc2)c1-c1nnn[nH]1 [Example 122, 3-(2-(piperidin-1-yl)pyrimidin-5-yl)-2-(1H-tetrazol-5-yl)benzenesulfonamide] |  | 0.0631 | 0.00308 | 4.688 | 4.688 | >200 | 0.249
4 | NS(=O)(=O)c1cccc(-c2cnc(NC3CC3)nc2)c1-c1nnn[nH]1 [Example 123, 3-(2-(cyclopropylamino)pyrimidin-5-yl)-2-(1H-tetrazol-5-yl)benzenesulfonamide] |  | 0.415 | 0.0083 | 1.563 | 18.75 | >200 | 0.309
5 | NS(=O)(=O)c1cccc(-c2cnc(NC3CCCC3)nc2)c1-c1nnn[nH]1 [Example 124, 3-(2-(cyclopentylamino)pyrimidin-5-yl)-2-(1H-tetrazol-5-yl)benzenesulfonamide] |  | 0.0689 | 0.00434 | 2.344 | 6.25 | >200 | 0.259
6 | NS(=O)(=O)c1cccc(-c2cnc(NCCO)nc2)c1-c1nnn[nH]1 [Example 125, 3-(2-((2-hydroxyethyl)amino)pyrimidin-5-yl)-2-(1H-tetrazol-5-yl)benzenesulfonamide] | 0.172 | 0.326 | 0.00655 | 1.953 | 9.375 | 25 | 
7 | NS(=O)(=O)c1cccc(-c2cnn(CCN3CCOCC3)c2)c1-c1nnn[nH]1 [Example 126, 3-(1-(2-morpholinoethyl)-1H-pyrazol-4-yl)-2-(1H-tetrazol-5-yl)benzenesulfonamide] |  | 0.864 | 0.166 | 6.25 | 25 | >200 | 14.4
8 | Cn1cc2cc(-c3cccc(S(N)(=O)=O)c3-c3nnn[nH]3)ccc2n1 [Example 127, 3-(2-methyl-2H-indazol-5-yl)-2-(1H-tetrazol-5-yl)benzenesulfonamide] |  | 0.157 | 0.00111 | 1.172 | 4.688 | 37.5 | 0.0842
9 | CN1CCN(c2ncc(-c3cccc(S(N)(=O)=O)c3-c3nnn[nH]3)cn2)CC1 [Example 128, 3-(2-(4-methylpiperazin-1-yl)pyrimidin-5-yl)-2-(1H-tetrazol-5-yl)benzenesulfonamide] |  | 0.453 | 0.00795 | 1.563 | 9.375 | >200 | 1.14
10 | NS(=O)(=O)c1cccc(-c2cc(F)cc(F)c2)c1-c1nnn[nH]1 [Example 129, 3′,5′-difluoro-2-(1H-tetrazol-5-yl)-[1,1′-biphenyl]-3-sulfonamide] | 0.0379 | 0.176 | 0.00371 | 0.7813 | 9.375 | 12.5 | 
11 | Nc1[nH]nc2cc(-c3cccc(S(N)(=O)=O)c3-c3nnn[nH]3)ccc12 [Example 131, 3-(3-amino-2H-indazol-6-yl)-2-(1H-tetrazol-5-yl)benzenesulfonamide] |  | 0.187 | 0.0007 | 0.7813 | 3.125 | 3.125 | 0.0169
12 | Nc1[nH]nc2ccc(-c3cccc(S(N)(=O)=O)c3-c3nnn[nH]3)cc12 [Example 132, 3-(3-amino-2H-indazol-5-yl)-2-(1H-tetrazol-5-yl)benzenesulfonamide] |  | 0.755 | 0.00273 | 1.172 | 12.5 | 6.25 | 0.0267
13 | Nc1cc(-c2cccc(S(N)(=O)=O)c2-c2nnn[nH]2)cc(N)n1 [Example 133, 3-(2,6-diaminopyridin-4-yl)-2-(1H-tetrazol-5-yl)benzenesulfonamide] |  | 4.92 | 0.0215 | 0.3906 | 37.5 | 6.25 | 0.108
14 | Nc1nc2c(-c3cccc(S(N)(=O)=O)c3-c3nnn[nH]3)cccc2s1 [Example 134, 3-(2-aminobenzo[d]thiazol-4-yl)-2-(1H-tetrazol-5-yl)benzenesulfonamide] |  | 0.0226 | 0.00028 | 0.5859 | 0.7813 | 3.125 | 0.0111
15 | COc1cc(-c2cccc(S(N)(=O)=O)c2-c2nnn[nH]2)ccn1 [Example 135, 3-(2-methoxypyridin-4-yl)-2-(1H-tetrazol-5-yl)benzenesulfonamide] |  | 0.0626 | 0.00447 | 1.172 | 1.172 | 18.75 | 0.0619
16 | N#Cc1cncc(-c2cccc(S(N)(=O)=O)c2-c2nnn[nH]2)c1 [Example 136, 3-(5-cyanopyridin-3-yl)-2-(1H-tetrazol-5-yl)benzenesulfonamide] |  | 1.69 | 0.0248 | 1.563 | 25 | 37.5 | 0.15
17 | Nc1cncc(-c2cccc(S(N)(=O)=O)c2-c2nnn[nH]2)n1 [Example 137, 3-(6-aminopyrazin-2-yl)-2-(1H-tetrazol-5-yl)benzenesulfonamide] |  | 2.53 | 0.0307 | 1.172 | 25 | 25 | 0.561

Source: US9708336B2, “Metallo-beta-lactamase inhibitors” (priority 2014, dated 2017)
